Molecules are shown by their SMILES. Values joined by “and” are separate entries in the source; they are usually repeats but may differ in a detail not shown here. Identical values can stand only once.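 Five compound concentrations were applied to cells in 96-well plates for 48 hours; endpoints were derived by simple linear interpolation of the resulting dose-response curve. At the GI50, growth is halved.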 Active and inactive are the calls of the source. Rule as the data show it: active = GI50 up to about 1.1 µM and inactive = higher.

The record followed here is ChEMBL document CHEMBL1201862, “PubChem BioAssay data set” (2004).

Holding throughout (assay): DTP human tumour cell line panel, 48 h
Assay [1] relates to NCI-H522.
Assay [2] relates to TK-10.
Assay [3] relates to SK-MEL-2.
The test system of assay [4] is NCI-H23.
Assay [5] concerns SW-620.
In assay [6] the test system is T47D.
Assay [7] has as its system SK-OV-3.
In assay [8] the test system is RXF 393.
The test system of assay [9] is K562.
The test system of assay [10] is SNB-75.
In assay [11] the test system is EKVX.
The test system of assay [12] is HCT-116.
For assay [13], the system named is SK-MEL-28.
The subject of assay [14] is UACC-62.
Assay [15] deals with NCI-H460.
The test system of assay [16] is DU-145.
In assay [17] the test system is PC-3.
The test system of assay [18] is MCF7.
The subject of assay [19] is COLO 205.
Assay [20] concerns HL-60.

The term GI50 denotes the concentration that inhibits growth by half. With `S=C(N/N=C\c1ccccn1)N(Cc1ccccn1)Cc1ccccn1`, the GI50 was 0.0637 µM (active) in assay [1]; 0.637 µM (active) in assay [2]; 11.6 µM (inactive) in assay [3]; 1.87 µM (inactive) in assay [4]; 0.333 µM (active) in assay [5]; 1.46 µM (inactive) in [6]. In addition, the GI50 in assay [7] is 2.04 µM (inactive); in assay [8], 10.4 µM (inactive); in assay [9] it was 0.205 µM (active); in [10] it was 5.43 µM (inactive); in assay [11], 0.721 µM (active); in assay [12], 0.557 µM (active). Besides, the GI50 in assay [13] is 1.22 µM (inactive); in [14], 2.08 µM (inactive); in assay [15] it was 1.11 µM (active); in assay [16], 2.29 µM (inactive); in assay [17], 6.89 µM (inactive); in [18] it was 0.111 µM (active).

As for `O=C(Cc1ccccc1)NN1C(=O)/C(=C\c2cccc(O)c2)S/C1=N\c1ccccc1`, the GI50 in [2] is > 100 µM (inactive); in assay [3], > 100 µM (inactive); in assay [4], > 100 µM (inactive); in assay [5], > 100 µM (inactive); in assay [6] it was 57.3 µM (inactive); in assay [19] it was > 100 µM (inactive). The GI50 in assay [7], in assay [8], in assay [10], in assay [11], in [12] and in assay [13] was > 100 µM (inactive) each time. In addition, the GI50 in [14], in assay [15], in assay [16] and in assay [18] was > 100 µM (inactive) each time.

For the molecule `COc1ccc(-n2c(CCCC(=O)O)nc3c2C(=O)c2ccccc2C3=O)cc1`, the GI50 in [1] was 25.8 µM (inactive); in [2], > 100 µM (inactive); in assay [3], 84.7 µM (inactive); in assay [4], 44.1 µM (inactive); in [5], 56.9 µM (inactive); in [6] it was 88.3 µM (inactive). In addition, the GI50 in [19] is 37.1 µM (inactive); in [7], > 100 µM (inactive); in assay [9] it was 47.3 µM (inactive); in assay [10], 89.5 µM (inactive); in assay [11], 60.7 µM (inactive); in [12], 36.6 µM (inactive). The GI50 was 31.1 µM (inactive) in [20]; > 100 µM (inactive) in assay [13]; 23.4 µM (inactive) in assay [14]; 93.1 µM (inactive) in assay [15]; 92 µM (inactive) in assay [16]; 32.6 µM (inactive) in assay [18].

`[O-][S+]1c2ccccc2SCSc2ccccc21`: the GI50 in assay [1] was > 100 µM (inactive); in assay [2] it was > 100 µM (inactive); in [3], > 100 µM (inactive); in assay [4], > 100 µM (inactive); in [6] it was 97.7 µM (inactive); in [19] it was > 100 µM (inactive). In addition, the GI50 in assay [7] is > 100 µM (inactive); in [8], > 100 µM (inactive); in assay [9], 16.7 µM (inactive); in [12], > 100 µM (inactive); in assay [14], > 100 µM (inactive); in assay [15], > 100 µM (inactive). The GI50 in assay [16], in assay [17] and in [18] was > 100 µM (inactive) in each case.

With `O=C(/C=C1/Nc2ccc([N+](=O)[O-])cc2N/C1=C/C(=O)c1ccc(Cl)cc1)c1ccccc1`, the GI50 in assay [1] was 12.6 µM (inactive); in assay [2], 59 µM (inactive); in [3] it was 19.9 µM (inactive); in [4], 20.3 µM (inactive); in assay [6] it was > 100 µM (inactive); in assay [19], > 100 µM (inactive). Also, the GI50 in [7] is 58.7 µM (inactive); in assay [8] it was 23.8 µM (inactive); in assay [9], 55.8 µM (inactive); in assay [10], 19.9 µM (inactive); in assay [11], > 100 µM (inactive); in [12] it was 56.9 µM (inactive). The GI50 in assay [14] was 20.5 µM (inactive); in assay [15] it was 32 µM (inactive); in assay [16], > 100 µM (inactive); in assay [17], > 100 µM (inactive); in assay [18], > 100 µM (inactive).

As to `COC(=O)[C@@H]1CN(C(=O)Cc2ccccc2)C(=O)N1`, the GI50 in assay [1], in assay [2], in assay [4], in assay [5], in [6] and in assay [19] was > 100 µM (inactive) throughout. The GI50 in [8] is > 100 µM (inactive); in assay [9] it was > 100 µM (inactive); in assay [10], 93.8 µM (inactive); in assay [11], > 100 µM (inactive); in [12], > 100 µM (inactive); in assay [20] it was > 100 µM (inactive). Further, the GI50 in assay [13], in [14], in [15], in assay [16] and in assay [17] was > 100 µM (inactive) in each case.

`O=C1c2ccccc2-c2c1c(-c1ccccc1)c1n2C2(C(=O)c3ccccc3C2=O)C2C(=O)N(c3ccccc3)C(=O)C12` (stereo not given): the GI50 in assay [1] is 12.9 µM (inactive); in [2], 28.1 µM (inactive); in [3], 22.6 µM (inactive); in [4], 17.4 µM (inactive); in [5], 31.5 µM (inactive); in assay [6] it was 16.9 µM (inactive). In addition, the GI50 in assay [19] was 18.5 µM (inactive); in assay [7], 41.9 µM (inactive); in assay [8], 17.6 µM (inactive); in assay [10], 17.3 µM (inactive); in assay [11], 24 µM (inactive); in assay [12] it was 17.9 µM (inactive). The GI50 in assay [13] is 28.9 µM (inactive); in assay [14], 21.6 µM (inactive); in assay [15] it was 12 µM (inactive); in [16] it was 28.5 µM (inactive); in assay [17], 26.6 µM (inactive); in assay [18], 24.8 µM (inactive).

With `CSCCCNC(=O)c1csc(-c2csc(C(CNC(=O)OC(C)(C)C)CNC(=O)OC(C)(C)C)n2)n1`, the GI50 in [1] is 18.6 µM (inactive); in [2] it was 66.1 µM (inactive); in assay [3], 27.7 µM (inactive); in assay [4] it was 36 µM (inactive); in assay [5], 58.3 µM (inactive); in assay [6], 29.2 µM (inactive). For the same molecule, the GI50 is 34 µM (inactive) in assay [19]; 60.3 µM (inactive) in assay [7]; 68.5 µM (inactive) in [8]; 33.6 µM (inactive) in assay [9]; 35 µM (inactive) in [10]; 58.3 µM (inactive) in assay [11]. Besides, the GI50 in assay [12] was 31.4 µM (inactive); in assay [14], 18.1 µM (inactive); in assay [15], 14.5 µM (inactive); in [16], 76.2 µM (inactive); in [17], 28.4 µM (inactive); in assay [18] it was 57.9 µM (inactive).

`Cc1ccc2c(=O)cc(Cc3csc4ccccc34)[nH]c2n1`: the GI50 in assay [1] was 13.6 µM (inactive); in assay [2] it was 53.5 µM (inactive); in [3] it was 79.3 µM (inactive); in assay [4], 19.3 µM (inactive); in [5], 40.7 µM (inactive); in assay [6] it was 19 µM (inactive). Also, the GI50 was 26.7 µM (inactive) in assay [19]; 67 µM (inactive) in assay [7]; 25.3 µM (inactive) in [8]; 43.5 µM (inactive) in assay [9]; 16.6 µM (inactive) in assay [10]; 29.2 µM (inactive) in assay [11]. For the same molecule, the GI50 was 28.8 µM (inactive) in assay [12]; 50.5 µM (inactive) in [13]; 27 µM (inactive) in assay [14]; 50.9 µM (inactive) in [16]; 67 µM (inactive) in assay [17]; 35.2 µM (inactive) in [18].

On to `O=S(=O)(O)c1cc(S(=O)(=O)O)c2cc(/N=N/c3c(O)ccc4ccccc34)ccc2c1`, for which the GI50 in assay [1], in assay [2], in assay [3], in assay [4], in [5] and in assay [6] was > 100 µM (inactive) in each case. Further, the GI50 in assay [19], in assay [7], in assay [8], in assay [9], in assay [10] and in assay [11] was > 100 µM (inactive) throughout. Moreover, the GI50 in assay [12], in [20], in assay [13], in assay [14], in assay [16] and in assay [17] was > 100 µM (inactive) throughout.

As to `O=C(/C=C/c1ccccc1)c1ccccn1`, the GI50 in assay [1] is 17.8 µM (inactive) and 15.1 µM (inactive); in [2], 19 µM (inactive) and 15.2 µM (inactive); in assay [3], 19.2 µM (inactive); in assay [4], 17.9 µM (inactive) and 17.5 µM (inactive); in [5] it was 18.7 µM (inactive) and 29.8 µM (inactive); in [6], 23.8 µM (inactive) and 13 µM (inactive). In addition, the GI50 is 18.6 µM (inactive) and 22.2 µM (inactive) in assay [19]; 27.4 µM (inactive) and 38.5 µM (inactive) in assay [7]; 19.2 µM (inactive) and 18.6 µM (inactive) in assay [8]; 24.5 µM (inactive) and 16 µM (inactive) in assay [10]; 22 µM (inactive) and 18.1 µM (inactive) in assay [11]; 17 µM (inactive) and 26.2 µM (inactive) in [13]. The GI50 was 16.6 µM (inactive) and 20.6 µM (inactive) in assay [14]; 16.7 µM (inactive) and 21.3 µM (inactive) in assay [15]; 12.4 µM (inactive) and 18.3 µM (inactive) in [16]; 19.1 µM (inactive) and 21.1 µM (inactive) in [17]; 16 µM (inactive) in assay [18].
